Test results from ChEMBL document CHEMBL3259563, “The discovery of potent and selective non-steroidal glucocorticoid receptor modulators, suitable for inhalation” (Bioorg Med Chem Lett, 2014).
Blank lines part the entries; values can stand above or below the molecule they belong to.

Key:
Lung = experiment: Drug uptake in intratracheally dosed rat lung after 24 hrs; type: ADME, organism-based; settings: in vivo, inhaled_or_intranasal
Cytochrome P450 2C19 = Cytochrome P450 2C19 (Homo sapiens, UniProt P33261); experiment: Inhibition of CYP2C19 (unknown origin); type: ADME
Chain of Cytochrome P450 2C19 (P33261 whole entry): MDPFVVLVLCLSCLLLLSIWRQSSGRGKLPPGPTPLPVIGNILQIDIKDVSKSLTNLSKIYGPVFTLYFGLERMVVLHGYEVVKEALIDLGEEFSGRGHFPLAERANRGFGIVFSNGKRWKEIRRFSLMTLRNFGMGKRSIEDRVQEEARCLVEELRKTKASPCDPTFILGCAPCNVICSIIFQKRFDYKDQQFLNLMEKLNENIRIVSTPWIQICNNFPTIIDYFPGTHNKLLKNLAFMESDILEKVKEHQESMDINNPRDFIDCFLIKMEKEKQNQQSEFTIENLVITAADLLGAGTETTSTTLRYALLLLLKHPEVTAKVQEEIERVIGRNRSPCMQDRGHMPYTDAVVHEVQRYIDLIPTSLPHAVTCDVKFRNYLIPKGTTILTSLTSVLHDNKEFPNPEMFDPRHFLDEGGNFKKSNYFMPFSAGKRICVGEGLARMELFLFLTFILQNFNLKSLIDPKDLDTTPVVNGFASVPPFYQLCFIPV

Plasma = experiment: Fraction unbound in human plasma; type: ADME, cell-free
hERG (KCNH2) = hERG (KCNH2) (Homo sapiens, UniProt Q12809); experiment: Inhibition of human ERG channel at 50 uM
Chain of hERG (KCNH2) (Q12809 whole entry): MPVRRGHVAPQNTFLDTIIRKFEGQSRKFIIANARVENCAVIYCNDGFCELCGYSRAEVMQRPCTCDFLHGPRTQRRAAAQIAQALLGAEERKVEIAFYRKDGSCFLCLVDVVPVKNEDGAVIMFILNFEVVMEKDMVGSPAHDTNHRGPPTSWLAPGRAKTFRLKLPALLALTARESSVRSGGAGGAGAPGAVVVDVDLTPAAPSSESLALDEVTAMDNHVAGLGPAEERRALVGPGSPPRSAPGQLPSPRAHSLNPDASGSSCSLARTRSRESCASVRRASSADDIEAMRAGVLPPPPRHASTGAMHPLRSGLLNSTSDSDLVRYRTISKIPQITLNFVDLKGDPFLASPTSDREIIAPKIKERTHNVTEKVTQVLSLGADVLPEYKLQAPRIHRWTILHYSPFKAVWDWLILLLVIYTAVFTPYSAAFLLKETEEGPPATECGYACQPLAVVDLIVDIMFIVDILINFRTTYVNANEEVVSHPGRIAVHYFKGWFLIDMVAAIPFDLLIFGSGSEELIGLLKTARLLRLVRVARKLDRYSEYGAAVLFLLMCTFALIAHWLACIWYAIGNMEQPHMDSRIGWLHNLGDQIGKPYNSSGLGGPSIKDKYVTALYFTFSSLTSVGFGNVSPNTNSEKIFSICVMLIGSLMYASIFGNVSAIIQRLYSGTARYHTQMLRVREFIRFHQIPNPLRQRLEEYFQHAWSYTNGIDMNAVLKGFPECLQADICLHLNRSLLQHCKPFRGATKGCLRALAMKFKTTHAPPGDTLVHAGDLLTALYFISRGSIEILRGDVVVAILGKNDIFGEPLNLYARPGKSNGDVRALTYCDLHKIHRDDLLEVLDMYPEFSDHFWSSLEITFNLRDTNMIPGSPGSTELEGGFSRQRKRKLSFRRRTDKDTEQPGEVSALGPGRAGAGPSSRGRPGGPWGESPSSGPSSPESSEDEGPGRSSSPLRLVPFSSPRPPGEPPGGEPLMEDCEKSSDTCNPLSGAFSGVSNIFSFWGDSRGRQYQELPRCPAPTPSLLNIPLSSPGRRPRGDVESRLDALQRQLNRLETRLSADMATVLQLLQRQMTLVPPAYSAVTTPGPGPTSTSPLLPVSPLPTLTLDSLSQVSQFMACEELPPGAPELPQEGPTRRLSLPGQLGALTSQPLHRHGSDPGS

Cytochrome P450 3A4 = Cytochrome P450 3A4 (Homo sapiens, UniProt P08684); experiment: Inhibition of CYP3A4 (unknown origin); type: ADME
Chain of Cytochrome P450 3A4 (P08684 whole entry): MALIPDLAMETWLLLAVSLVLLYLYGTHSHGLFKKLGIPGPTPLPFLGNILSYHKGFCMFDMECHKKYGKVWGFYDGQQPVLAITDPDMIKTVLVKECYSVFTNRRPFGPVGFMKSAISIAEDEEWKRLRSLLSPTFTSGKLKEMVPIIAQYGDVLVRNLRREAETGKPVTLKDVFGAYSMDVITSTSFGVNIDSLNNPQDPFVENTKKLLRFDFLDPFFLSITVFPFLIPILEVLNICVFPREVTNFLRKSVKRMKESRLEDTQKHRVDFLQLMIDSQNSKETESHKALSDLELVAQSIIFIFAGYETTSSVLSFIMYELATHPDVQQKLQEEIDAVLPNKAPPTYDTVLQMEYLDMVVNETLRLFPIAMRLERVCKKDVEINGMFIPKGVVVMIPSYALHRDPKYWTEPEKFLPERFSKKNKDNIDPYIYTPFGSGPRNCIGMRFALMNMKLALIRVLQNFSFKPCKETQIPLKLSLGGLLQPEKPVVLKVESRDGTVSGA

Hepatocyte [1] = experiment: Intrinsic clearance in rat hepatocytes; type: ADME, cell-based
Rattus norvegicus [2] = experiment: Antiinflammatory activity in rat assessed as inhibition of LPS-induced lung edema at 30 ug/kg, administered intratracheally 2 hrs prior to LPS challenge measured after 4 hrs relative to control; type: functional; settings: inhaled or nasal
Rattus norvegicus [3] = experiment: Antiinflammatory activity in rat assessed as inhibition of LPS-induced lung edema at 100 ug/kg, administered intratracheally 2 hrs prior to LPS challenge measured after 4 hrs relative to control; type: functional; settings: inhaled or nasal
Mus musculus [4] = experiment: Antiinflammatory activity in mouse acute cigarette smoke model assessed as inhibition of neutrophil influx to broncho-alveolar lavage fluid at 30 ug/kg, administered intratracheally 30 mins prior to first cigarette smoke challenge every day for 4 days measured after 24 hrs post last cigarette smoke challenge relative to control; settings: inhaled or nasal
Mus musculus [5] = experiment: Antiinflammatory activity in mouse acute cigarette smoke model assessed as inhibition of neutrophil influx to broncho-alveolar lavage fluid at 100 ug/kg, administered intratracheally 30 mins prior to first cigarette smoke challenge every day for 4 days measured after 24 hrs post last cigarette smoke challenge relative to control; settings: inhaled or nasal
Glucocorticoid receptor = target: T1, Glucocorticoid receptor (Rattus norvegicus, UniProt P06536); experiment: Agonist activity at glucocorticoid receptor in rat PBMC assessed as inhibition of LPS-stimulated TNF-alpha release
T1 sequence (P06536 whole entry): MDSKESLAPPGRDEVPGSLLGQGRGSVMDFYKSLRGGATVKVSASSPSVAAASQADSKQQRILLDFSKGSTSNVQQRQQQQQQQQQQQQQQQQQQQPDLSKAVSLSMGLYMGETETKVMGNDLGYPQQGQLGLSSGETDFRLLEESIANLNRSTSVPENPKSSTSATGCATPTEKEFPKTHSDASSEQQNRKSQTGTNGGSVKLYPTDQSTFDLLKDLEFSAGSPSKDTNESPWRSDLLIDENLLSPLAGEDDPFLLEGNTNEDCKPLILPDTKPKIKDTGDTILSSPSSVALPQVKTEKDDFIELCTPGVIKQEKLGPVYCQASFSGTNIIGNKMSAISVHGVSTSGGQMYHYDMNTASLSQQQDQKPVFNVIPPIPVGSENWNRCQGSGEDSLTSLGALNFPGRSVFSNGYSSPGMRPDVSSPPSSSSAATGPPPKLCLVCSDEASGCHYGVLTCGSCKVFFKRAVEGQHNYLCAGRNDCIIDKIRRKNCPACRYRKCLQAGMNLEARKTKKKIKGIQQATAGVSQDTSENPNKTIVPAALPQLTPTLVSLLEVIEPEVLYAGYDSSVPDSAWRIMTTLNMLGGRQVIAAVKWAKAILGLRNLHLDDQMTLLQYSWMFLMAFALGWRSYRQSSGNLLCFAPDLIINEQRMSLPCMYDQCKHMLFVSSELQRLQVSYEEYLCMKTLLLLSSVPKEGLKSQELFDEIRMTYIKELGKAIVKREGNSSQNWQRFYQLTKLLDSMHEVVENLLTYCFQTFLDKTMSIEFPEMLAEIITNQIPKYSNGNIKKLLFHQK

Androgen receptor = target: T2, Androgen receptor (Homo sapiens, UniProt P10275); experiment: Binding affinity to androgen receptor (unknown origin)
T2 sequence (P10275 whole entry): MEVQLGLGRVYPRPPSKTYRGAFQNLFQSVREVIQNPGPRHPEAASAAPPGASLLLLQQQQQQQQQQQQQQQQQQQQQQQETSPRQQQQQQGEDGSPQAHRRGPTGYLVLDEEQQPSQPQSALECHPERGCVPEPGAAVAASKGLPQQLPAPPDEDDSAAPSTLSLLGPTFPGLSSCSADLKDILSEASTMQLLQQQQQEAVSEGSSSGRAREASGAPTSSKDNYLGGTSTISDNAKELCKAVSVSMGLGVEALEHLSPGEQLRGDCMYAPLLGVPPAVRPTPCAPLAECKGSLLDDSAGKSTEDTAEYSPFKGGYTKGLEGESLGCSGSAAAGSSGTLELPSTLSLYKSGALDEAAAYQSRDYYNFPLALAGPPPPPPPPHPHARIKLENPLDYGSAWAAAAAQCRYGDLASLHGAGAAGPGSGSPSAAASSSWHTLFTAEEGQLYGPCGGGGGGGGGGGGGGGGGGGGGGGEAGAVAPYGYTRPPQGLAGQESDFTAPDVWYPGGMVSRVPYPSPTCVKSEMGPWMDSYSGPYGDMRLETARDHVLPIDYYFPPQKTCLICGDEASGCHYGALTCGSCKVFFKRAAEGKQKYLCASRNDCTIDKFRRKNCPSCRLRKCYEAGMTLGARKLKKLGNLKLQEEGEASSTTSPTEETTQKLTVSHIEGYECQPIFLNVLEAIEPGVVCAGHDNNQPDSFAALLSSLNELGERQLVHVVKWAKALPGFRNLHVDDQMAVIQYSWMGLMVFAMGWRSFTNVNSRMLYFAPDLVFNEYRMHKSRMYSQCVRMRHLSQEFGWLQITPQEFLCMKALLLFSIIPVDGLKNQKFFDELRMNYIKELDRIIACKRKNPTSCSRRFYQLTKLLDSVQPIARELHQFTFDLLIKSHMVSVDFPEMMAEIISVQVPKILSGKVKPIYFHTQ

[6] = Lipophilicity, log D of the compound at pH 7.4; type: physicochemical; settings: buffer
Cytochrome P450 2C9 = Cytochrome P450 2C9 (Homo sapiens, UniProt P11712); experiment: Inhibition of CYP2C9 (unknown origin); type: ADME
Chain of Cytochrome P450 2C9 (P11712 whole entry): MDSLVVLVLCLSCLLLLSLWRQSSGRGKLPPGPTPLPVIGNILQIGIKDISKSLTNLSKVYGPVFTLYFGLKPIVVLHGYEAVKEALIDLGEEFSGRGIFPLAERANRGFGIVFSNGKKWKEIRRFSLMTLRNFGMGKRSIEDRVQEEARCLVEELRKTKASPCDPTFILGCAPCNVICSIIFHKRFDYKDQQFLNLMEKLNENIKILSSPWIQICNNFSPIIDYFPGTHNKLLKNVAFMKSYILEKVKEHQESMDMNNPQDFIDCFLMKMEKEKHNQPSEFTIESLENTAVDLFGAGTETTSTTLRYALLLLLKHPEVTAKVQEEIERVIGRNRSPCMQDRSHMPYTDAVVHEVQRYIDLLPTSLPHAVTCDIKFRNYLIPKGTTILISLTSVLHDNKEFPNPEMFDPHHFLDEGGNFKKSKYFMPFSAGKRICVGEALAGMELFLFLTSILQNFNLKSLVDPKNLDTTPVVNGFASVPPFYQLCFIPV

[7] = Thermodynamic solubility of the crystalline compound in 0.1 M phosphate buffer at pH 7.4 at 25 degC after 24 hrs; type: physicochemical; settings: read-out: Therm_solubility
Mus musculus [8] = experiment: Antiinflammatory activity in mouse acute cigarette smoke model assessed as inhibition of neutrophil influx to broncho-alveolar lavage fluid at 10 ug/kg, administered intratracheally 30 mins prior to first cigarette smoke challenge every day for 4 days measured after 24 hrs post last cigarette smoke challenge relative to control; settings: inhaled or nasal
[9] = Thermodynamic solubility of the amorphous compound in 0.1 M phosphate buffer at pH 7.4 at 25 degC after 24 hrs; type: physicochemical; settings: read-out: Therm_solubility
Cytochrome P450 1A2 = target: T3, Cytochrome P450 1A2 (Homo sapiens, UniProt P05177); experiment: Inhibition of CYP1A2 (unknown origin); type: ADME
T3 sequence (P05177 whole entry): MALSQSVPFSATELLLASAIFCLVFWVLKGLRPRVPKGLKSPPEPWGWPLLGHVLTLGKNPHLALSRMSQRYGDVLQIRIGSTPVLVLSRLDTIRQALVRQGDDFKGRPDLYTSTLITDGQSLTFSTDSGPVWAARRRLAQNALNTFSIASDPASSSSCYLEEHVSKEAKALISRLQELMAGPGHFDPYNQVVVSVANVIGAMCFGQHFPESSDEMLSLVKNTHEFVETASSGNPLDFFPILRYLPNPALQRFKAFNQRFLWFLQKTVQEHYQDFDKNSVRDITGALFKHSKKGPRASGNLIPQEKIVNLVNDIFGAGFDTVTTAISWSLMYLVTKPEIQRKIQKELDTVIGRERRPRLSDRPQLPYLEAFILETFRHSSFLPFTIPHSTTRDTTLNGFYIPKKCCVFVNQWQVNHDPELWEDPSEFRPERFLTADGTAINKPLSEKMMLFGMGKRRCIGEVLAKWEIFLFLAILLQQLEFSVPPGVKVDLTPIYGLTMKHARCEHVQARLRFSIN

Cytochrome P450 2D6 = Cytochrome P450 2D6 (Homo sapiens, UniProt P10635); experiment: Inhibition of CYP2D6 (unknown origin); type: ADME
Chain of Cytochrome P450 2D6 (P10635 whole entry): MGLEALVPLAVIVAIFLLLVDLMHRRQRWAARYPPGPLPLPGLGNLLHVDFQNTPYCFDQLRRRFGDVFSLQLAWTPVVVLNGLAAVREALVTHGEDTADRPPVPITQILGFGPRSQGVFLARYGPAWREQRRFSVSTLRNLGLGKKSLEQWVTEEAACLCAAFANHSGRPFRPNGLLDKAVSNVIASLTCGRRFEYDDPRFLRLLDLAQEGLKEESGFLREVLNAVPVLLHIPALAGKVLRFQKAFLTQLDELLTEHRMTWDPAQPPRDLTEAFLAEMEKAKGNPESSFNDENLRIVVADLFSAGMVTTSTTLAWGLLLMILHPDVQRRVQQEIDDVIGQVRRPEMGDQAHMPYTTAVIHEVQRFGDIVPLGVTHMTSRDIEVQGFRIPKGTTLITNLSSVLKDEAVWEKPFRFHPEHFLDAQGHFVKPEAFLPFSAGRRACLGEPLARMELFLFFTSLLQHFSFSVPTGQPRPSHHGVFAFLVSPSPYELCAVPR

Rattus norvegicus [10] = experiment: Antiinflammatory activity in rat assessed as inhibition of LPS-induced lung edema at 10 ug/kg, administered intratracheally 2 hrs prior to LPS challenge measured after 4 hrs relative to control; type: functional; settings: inhaled or nasal
Rattus norvegicus [11] = experiment: Antiinflammatory activity in rat assessed as inhibition of LPS-induced leukocyte influx to broncho-alveolar lavage fluid at 10 ug/kg, administered intratracheally 2 hrs prior to LPS challenge measured after 4 hrs relative to control; type: functional; settings: inhaled or nasal
Rattus norvegicus [12] = experiment: Antiinflammatory activity in rat assessed as inhibition of LPS-induced leukocyte influx to broncho-alveolar lavage fluid at 30 ug/kg, administered intratracheally 2 hrs prior to LPS challenge measured after 4 hrs relative to control; type: functional; settings: inhaled or nasal
Hepatocyte [13] = experiment: Intrinsic clearance in human hepatocytes; type: ADME, cell-based
Rattus norvegicus [14] = experiment: Antiinflammatory activity in rat assessed as inhibition of LPS-induced leukocyte influx to broncho-alveolar lavage fluid at 100 ug/kg, administered intratracheally 2 hrs prior to LPS challenge measured after 4 hrs relative to control; type: functional; settings: inhaled or nasal
Mus musculus [15] = experiment: Antiinflammatory activity in mouse acute cigarette smoke model assessed as inhibition of neutrophil influx to broncho-alveolar lavage fluid at 300 ug/kg, administered intratracheally 30 mins prior to first cigarette smoke challenge every day for 4 days measured after 24 hrs post last cigarette smoke challenge relative to control; settings: inhaled or nasal

Drug uptake (Lung): 50%
IC50 (Cytochrome P450 2C19): > 20 µM
Fu (Plasma): < 0.003%
IC50 (Cytochrome P450 3A4): 10 µM
CLH (Hepatocyte [1]): 13 µL/min
IC50 (Glucocorticoid receptor): 0.0009 µM
IC50 (Androgen receptor): > 1 µM
logD [6]: 4.1
IC50 (Cytochrome P450 2C9): 7.9 µM
solubility thermodynamic at 24 h [7]: < 0.2 µM
solubility thermodynamic at 24 h [9]: < 0.43 µM
IC50 (Cytochrome P450 1A2): > 20 µM
IC50 (Cytochrome P450 2D6): > 20 µM
CLH (Hepatocyte [13]): 18 µL/min
Structure (SMILES): Cc1cc(C)c(S(=O)(=O)N[C@@H](C)CNc2cccc3c2cnn3-c2ccc(F)cc2)c(C)c1
inhibition at 50 µM (hERG (KCNH2)): < 25%
inhibition in vivo at 0.03 mg/kg (Rattus norvegicus [2]): 42%
inhibition in vivo at 0.1 mg/kg (Rattus norvegicus [3]): 56%
inhibition in vivo at 0.03 mg/kg (Mus musculus [4]): 36%
inhibition in vivo at 0.1 mg/kg (Mus musculus [5]): 23%
inhibition in vivo at 0.01 mg/kg (Mus musculus [8]): 0%
inhibition in vivo at 0.01 mg/kg (Rattus norvegicus [10]): 32%
inhibition in vivo at 0.01 mg/kg (Rattus norvegicus [11]): 37%
inhibition in vivo at 0.03 mg/kg (Rattus norvegicus [12]): 90%
inhibition in vivo at 0.1 mg/kg (Rattus norvegicus [14]): 85%

Structure (SMILES): CCCC1O[C@@H]2C[C@H]3[C@@H]4CCC5=CC(=O)C=C[C@]5(C)[C@H]4[C@@H](O)C[C@]3(C)[C@]2(C(=O)CO)O1 (stereo not given in full) [BUDESONIDE]
inhibition in vivo at 0.3 mg/kg (Mus musculus [15]): 38%
